According to ChEMBL document CHEMBL5365419, “Identification of a Protein Arginine Methyltransferase 7 (PRMT7)/Protein Arginine Methyltransferase 9 (PRMT9) Inhibitor” (J Med Chem, 2023):
Active and inactive are the calls of the source. The rule behind the calls is not given here.

Legend:
[1] = molecular target: Histone-lysine N-methyltransferase ASH1L (Homo sapiens) (UniProt Q9NR48); assay: Inhibition of N-terminal His-tagged human recombinant ASH1L (2046 to 2330 residues) at higher concentration using oligo nucleosomes as substrate and 3H-SAM as cosubstrate incubated for 60 mins by scintillation counter analysis
[2] = molecular target: Histone-lysine N-methyltransferase EZH2 (Homo sapiens) (UniProt Q15910); assay: Inhibition of N-terminal His-tagged human full-length recombinant EZH2 (2 to 746 residues) in PRC2 complex at higher concentration using core histone as substrate and 3H-SAM as cosubstrate incubated for 60 mins by scintillation counter analysis
Histone-lysine N-methyltransferase EZH2 (Homo sapiens), sequence (Q15910 whole entry, looked up, the tested form may be a part): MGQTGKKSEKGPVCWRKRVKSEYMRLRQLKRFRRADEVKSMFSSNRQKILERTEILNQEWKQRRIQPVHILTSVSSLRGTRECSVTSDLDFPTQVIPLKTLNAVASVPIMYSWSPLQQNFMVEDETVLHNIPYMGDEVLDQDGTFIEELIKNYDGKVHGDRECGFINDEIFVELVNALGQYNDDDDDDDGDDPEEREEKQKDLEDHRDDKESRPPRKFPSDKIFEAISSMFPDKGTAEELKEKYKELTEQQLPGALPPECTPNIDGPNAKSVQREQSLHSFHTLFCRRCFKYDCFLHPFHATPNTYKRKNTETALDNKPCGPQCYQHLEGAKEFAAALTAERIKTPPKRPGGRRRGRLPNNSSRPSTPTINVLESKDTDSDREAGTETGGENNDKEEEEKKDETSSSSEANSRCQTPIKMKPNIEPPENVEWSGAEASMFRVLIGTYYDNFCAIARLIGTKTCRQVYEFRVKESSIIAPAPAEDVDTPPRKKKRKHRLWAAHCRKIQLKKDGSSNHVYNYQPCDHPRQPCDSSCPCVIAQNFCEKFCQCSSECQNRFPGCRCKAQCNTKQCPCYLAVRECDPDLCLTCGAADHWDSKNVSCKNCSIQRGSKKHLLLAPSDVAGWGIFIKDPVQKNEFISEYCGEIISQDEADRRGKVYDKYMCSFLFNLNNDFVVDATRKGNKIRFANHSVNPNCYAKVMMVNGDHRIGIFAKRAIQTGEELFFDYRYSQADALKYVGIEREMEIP

[3] = molecular target: T1, Histone-lysine N-methyltransferase EHMT2 (Homo sapiens) (UniProt Q96KQ7); assay: Inhibition of N-terminal/C-terminal His-tagged human recombinant G9a (913 to 1193 residues) at higher concentration using histone H3 (1 to 21 residues) as substrate and 3H-SAM as cosubstrate incubated for 60 mins by scintillation counter analysis
T1 sequence (whole entry): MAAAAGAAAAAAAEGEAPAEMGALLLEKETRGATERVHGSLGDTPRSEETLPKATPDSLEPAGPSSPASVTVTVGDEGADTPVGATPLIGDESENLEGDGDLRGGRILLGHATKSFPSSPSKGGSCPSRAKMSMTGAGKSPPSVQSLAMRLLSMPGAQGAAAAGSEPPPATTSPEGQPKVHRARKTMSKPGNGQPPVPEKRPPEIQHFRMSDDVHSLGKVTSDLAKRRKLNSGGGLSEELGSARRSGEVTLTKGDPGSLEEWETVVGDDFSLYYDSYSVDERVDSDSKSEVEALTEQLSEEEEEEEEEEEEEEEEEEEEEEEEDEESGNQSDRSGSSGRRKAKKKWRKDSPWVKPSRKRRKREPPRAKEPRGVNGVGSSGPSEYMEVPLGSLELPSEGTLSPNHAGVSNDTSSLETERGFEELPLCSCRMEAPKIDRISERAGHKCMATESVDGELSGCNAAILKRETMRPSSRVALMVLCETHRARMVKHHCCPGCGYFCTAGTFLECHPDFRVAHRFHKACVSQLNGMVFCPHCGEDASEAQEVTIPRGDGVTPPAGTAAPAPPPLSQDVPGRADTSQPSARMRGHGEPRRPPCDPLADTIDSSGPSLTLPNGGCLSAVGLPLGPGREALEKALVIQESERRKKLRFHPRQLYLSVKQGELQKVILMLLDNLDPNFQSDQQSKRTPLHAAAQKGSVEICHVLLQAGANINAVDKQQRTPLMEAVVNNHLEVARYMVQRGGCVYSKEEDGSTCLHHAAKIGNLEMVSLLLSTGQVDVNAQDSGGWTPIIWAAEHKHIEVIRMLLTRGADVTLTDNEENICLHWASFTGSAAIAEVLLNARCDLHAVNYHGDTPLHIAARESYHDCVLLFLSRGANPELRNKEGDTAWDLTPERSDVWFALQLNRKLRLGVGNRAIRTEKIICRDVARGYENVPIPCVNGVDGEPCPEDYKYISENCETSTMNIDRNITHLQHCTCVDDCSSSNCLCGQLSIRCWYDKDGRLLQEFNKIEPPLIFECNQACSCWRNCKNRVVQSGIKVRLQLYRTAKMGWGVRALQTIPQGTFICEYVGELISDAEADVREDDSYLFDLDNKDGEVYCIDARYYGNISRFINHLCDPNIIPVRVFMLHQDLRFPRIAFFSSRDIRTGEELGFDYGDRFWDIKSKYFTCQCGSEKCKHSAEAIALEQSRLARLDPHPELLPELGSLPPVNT

[4] = molecular target: T2, Protein arginine N-methyltransferase 7 (Homo sapiens) (UniProt Q9NVM4); assay: Inhibition of PRMT7 catalysed methylation of HSP70 at R469 residue in HEK293T cells assessed as increase in ratio of abundance of unmethylated over methylated peptides at 10 to 50 uM measured after 24 to 48 hrs by UHPLC- MS/MS analysis; format: cell-based; settings: dose 10-50 µM, time 24-48 hrs
T2 sequence (whole entry): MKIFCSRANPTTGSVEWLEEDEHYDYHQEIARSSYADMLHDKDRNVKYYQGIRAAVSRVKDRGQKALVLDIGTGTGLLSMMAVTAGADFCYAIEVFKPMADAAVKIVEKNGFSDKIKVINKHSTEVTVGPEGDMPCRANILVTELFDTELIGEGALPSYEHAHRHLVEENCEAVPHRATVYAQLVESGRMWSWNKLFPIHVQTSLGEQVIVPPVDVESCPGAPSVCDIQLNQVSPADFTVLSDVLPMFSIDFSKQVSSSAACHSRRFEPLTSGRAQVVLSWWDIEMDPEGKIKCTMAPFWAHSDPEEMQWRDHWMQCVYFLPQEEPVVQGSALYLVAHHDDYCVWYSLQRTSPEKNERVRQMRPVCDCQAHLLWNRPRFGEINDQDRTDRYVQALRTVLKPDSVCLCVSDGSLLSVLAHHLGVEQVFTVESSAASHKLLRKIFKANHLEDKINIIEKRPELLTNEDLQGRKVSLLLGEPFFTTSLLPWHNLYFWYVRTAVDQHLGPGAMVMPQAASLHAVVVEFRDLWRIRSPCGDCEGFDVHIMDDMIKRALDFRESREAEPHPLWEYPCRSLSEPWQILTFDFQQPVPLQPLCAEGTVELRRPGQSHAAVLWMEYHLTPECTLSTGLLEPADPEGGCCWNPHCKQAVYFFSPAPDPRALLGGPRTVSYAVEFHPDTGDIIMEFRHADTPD

inhibition [1]: inactive | inhibition [2]: inactive | inhibition [3]: inactive | inhibition [4]: Active
SMILES: COC(=O)c1cc(O)c2cc(NC(=O)NCCCNC(=N)NC[C@H]3O[C@@H](n4cnc5c(N)ncnc54)[C@H](O)[C@@H]3O)cc(C(F)(F)F)c2c1
